Assay results reported in US4197288A, “Neuroleptic radioreceptor assay method and kit” (Burroughs Wellcome Co., priority 1977, dated 1980).
Like-named read-outs stand apart in the source and are kept apart here.

Assays:
[1] = human, in vivo, po
[2] = 0.1 μM drug preincubated with serum 10 min at 37°

SMILES | Drug level recovered in the radioreceptor assay [2] | further results
O=C(CCCN1CCC(O)(c2ccc(Cl)cc2)CC1)c1ccc(F)cc1 [Haloperidol] |  | concentration [1]: 10 to 350 nM
CN(C)CCCN1c2ccccc2Sc2ccc(Cl)cc21 [chlorpromazine] |  | Drug level recovered in the radioreceptor assay (1 μM drug preincubated with serum 10 min at 37°): 1000 ± 100 nM
OCCN1CCN(CCCN2c3ccccc3Sc3ccc(C(F)(F)F)cc32)CC1 [fluphenazine] | 120 ± 10 nM | 
CN1CCN(CCCN2c3ccccc3Sc3ccc(C(F)(F)F)cc32)CC1 [trifluoperazine] | 160 ± 200 nM | 
